Data as given in patent US20240239766A1, “3-AMINO PIPERIDYL SODIUM CHANNEL INHIBITORS” (Genentech, Inc., priority 2021, published 2024).
Counter-ions that a name gives are not always drawn.

Target: hNav1.7 (Homo sapiens (Human), UniProt Q15858)
Assay: Patch voltage clamp electrophysiology assay (EP), Syncropatch 384PE, CHO cells expressing Nav1.7
Format: cell-based
Details: holding potential −50 mV; 7.5 min compound incubation; read-out: EP SP hNav1.7 EVO (IC50)
Excerpt: Example 101c: Electrophysiological Assay (EP) (In Vitro Assay)
Patch voltage clamp electrophysiology allows for the direct measurement and quantification of block of voltage-gated sodium channels (NaV's), and allows the determination of the time- and voltage-dependence of block which has been interpreted as differential binding to the resting, open, and inactivated states of the sodium channel (Hille, B., Journal of General Physiology (1977), 69: 497-515).
The following voltage clamp electrophysiology studies are performed on representative compounds using cells heterologously expressing Nav1.7 or Nav1.5 channels. cDNAsfor Nav1.7 (NM_002977) and Nav1.5 (AC137587) are stably expressed in Chinese Hamstr Ovary (CHO) cells and CHL (Chinese Hamster Lung) cells respectively. Sodium currents are measured in the whole-cell configuration using Syncropatch 384PE (Nanlon Technologies, Germany). 1NPC®-384 chips with custom medium resistance and single hole mode are used. Internal solution consists of (in mM): […], 10 CsCl, 20 EGTA, and 10 Hepes (pH adjusted to 7.2); and external solution contains (in mM): 60 NMDG, 80 NaCl, 4 KCl, 1 MgCl2, 2 CaCl2), 2 D-Glucose monohydrate, 10 Hepes (pH adjusted to 7.4 with NaOH).
After system flushing, testing compounds are dissolved in external solution containing 0.1% Pluronic F-127. The chip is moved into the measuring head and the instrument primes the chip with external and internal solutions. 10 μl cells are added to the chip from a cell hotel, and a negative pressure of −50 mBar is applied to form a seal. Following treatment with seal enhancer solution and wash-off with external solution, negative pressure of −250 mbar is applied for 1 second to achieve the whole-cell configuration, followed by three washing steps in external solution. 20 μl of compounds is added to 40 μl in each well (1:3 dilution of compounds), and after mixing, 20 μl is removed so the volume is retained at 40 ul. After approximately 13 minutes recordings, 20 μl/well of 2 uM TTX, or 333 uM Tetracaine (for Nav1.5) is added to achieve full block.
For voltage protocol, an holding potential of −50 mV is applied during the whole experiment. A depolarizing step is applied to −10 mV for 10 ms, followed by a hyperpolarization step to −150 mV for 20 ms to allow channel recovery from inactivation. A second depolarizing step is applied from −150 mV to −10 mV for 10 ms, where currents are measured to derive blocking effects of compounds. Inhibition is determined based on 7.5 min of compound incubation.

hNav1.7, sequence (Q15858 other isoform, or with tags, fused parts or gaps): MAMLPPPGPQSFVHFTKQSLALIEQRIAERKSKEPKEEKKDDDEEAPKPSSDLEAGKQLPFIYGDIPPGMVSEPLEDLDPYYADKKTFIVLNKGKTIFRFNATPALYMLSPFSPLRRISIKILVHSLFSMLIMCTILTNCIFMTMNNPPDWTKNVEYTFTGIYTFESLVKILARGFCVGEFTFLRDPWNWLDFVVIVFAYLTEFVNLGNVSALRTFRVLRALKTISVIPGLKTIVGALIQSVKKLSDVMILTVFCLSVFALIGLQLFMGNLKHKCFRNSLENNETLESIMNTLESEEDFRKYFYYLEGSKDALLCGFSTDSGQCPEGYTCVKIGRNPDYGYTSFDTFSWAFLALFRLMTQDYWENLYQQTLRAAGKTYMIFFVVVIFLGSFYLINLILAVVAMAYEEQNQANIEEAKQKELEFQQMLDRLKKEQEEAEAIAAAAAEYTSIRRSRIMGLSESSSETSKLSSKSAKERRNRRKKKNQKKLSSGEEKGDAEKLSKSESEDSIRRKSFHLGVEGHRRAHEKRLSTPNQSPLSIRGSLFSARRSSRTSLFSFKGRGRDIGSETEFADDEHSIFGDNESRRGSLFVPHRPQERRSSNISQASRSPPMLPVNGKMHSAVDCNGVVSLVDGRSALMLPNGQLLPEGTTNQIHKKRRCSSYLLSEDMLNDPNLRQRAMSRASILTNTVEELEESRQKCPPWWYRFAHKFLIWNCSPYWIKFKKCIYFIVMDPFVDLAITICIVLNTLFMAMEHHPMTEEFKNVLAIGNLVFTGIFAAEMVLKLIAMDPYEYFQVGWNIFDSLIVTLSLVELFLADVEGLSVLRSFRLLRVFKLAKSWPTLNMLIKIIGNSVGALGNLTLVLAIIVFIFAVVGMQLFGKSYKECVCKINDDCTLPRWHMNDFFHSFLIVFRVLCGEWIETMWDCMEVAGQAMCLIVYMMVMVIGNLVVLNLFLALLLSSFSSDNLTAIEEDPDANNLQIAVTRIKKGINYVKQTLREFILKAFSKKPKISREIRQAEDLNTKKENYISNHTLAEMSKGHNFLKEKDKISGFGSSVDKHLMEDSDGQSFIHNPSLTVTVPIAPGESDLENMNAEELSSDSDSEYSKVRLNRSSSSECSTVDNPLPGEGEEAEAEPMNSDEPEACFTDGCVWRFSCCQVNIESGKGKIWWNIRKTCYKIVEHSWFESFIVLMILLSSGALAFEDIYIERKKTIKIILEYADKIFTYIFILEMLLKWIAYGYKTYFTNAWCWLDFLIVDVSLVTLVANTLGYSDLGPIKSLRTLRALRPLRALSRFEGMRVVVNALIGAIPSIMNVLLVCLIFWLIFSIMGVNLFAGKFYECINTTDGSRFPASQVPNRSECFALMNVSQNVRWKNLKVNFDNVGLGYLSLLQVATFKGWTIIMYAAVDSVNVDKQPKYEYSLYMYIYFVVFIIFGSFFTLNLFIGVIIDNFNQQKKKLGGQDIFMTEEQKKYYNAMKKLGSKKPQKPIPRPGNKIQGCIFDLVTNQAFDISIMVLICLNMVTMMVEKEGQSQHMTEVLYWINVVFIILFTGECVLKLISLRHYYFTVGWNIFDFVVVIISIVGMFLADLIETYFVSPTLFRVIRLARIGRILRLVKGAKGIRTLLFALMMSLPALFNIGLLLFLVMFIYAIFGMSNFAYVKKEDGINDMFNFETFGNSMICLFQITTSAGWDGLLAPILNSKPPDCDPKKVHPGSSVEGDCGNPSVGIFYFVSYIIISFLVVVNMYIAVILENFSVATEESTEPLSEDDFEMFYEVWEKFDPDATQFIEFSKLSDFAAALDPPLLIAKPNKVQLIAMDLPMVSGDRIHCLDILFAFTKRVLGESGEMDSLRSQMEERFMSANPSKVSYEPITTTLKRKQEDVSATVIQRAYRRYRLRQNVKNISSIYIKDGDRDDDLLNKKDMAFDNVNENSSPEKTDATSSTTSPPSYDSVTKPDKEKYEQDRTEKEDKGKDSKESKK

Row | SMILES | IC50
1 | CN(C)[C@@]1(CCc2cccc(C(F)(F)F)c2)CCCN(c2cc(F)c(S(=O)(=O)Nc3ccncn3)c(Cl)c2)C1 (single isomer, unassigned) [Example 17] | 314 nM
2 | CN(C)[C@@]1(CCc2cccc(Cl)c2)CCCN(c2cc(F)c(S(=O)(=O)Nc3ccncn3)c(F)c2)C1 (single isomer, unassigned) [Example 90, formate] | 4460 nM
3 | CN1CCC(N(C)[C@@]2(CCc3cccc(C(F)(F)F)c3)CCCN(c3ccc(S(=O)(=O)Nc4ccncn4)c(F)c3)C2)CC1 (single isomer, unassigned) [Example 36] | 2690 nM
4 | O=S(=O)(Nc1ccncn1)c1ccc(N2CCC[C@](CCc3cccc(C(F)(F)F)c3)(N3CCC3)C2)cc1F (single isomer, unassigned) [Example 21] | 3180 nM
5 | CN(C)[C@@]1(CCc2ccc(C(F)(F)F)cc2Cl)CCCN(c2cc(F)c(S(=O)(=O)Nc3ccncn3)c(F)c2)C1 (single isomer, unassigned) [Example 56] | 353 nM
6 | CN(C)[C@@]1(CCc2cccc(C(F)(F)F)c2)CN(c2cc(F)c(S(=O)(=O)Nc3ccncn3)c(F)c2)CC[C@H]1O (single isomer, unassigned) [Example 77, formate] | 2.55 nM
7 | Cc1cc(N2CCC[C@@](CCc3cccc(C(F)(F)F)c3)(N(C)C)C2)cc(Cl)c1S(=O)(=O)Nc1ccncn1 (single isomer, unassigned) [Example 67, formate] | 2.4 nM
8 | CN([C@H]1CCOC1)[C@@]1(CCc2cccc(C(F)(F)F)c2)CCCN(c2cc(F)c(S(=O)(=O)Nc3ccncn3)c(F)c2)C1 (single isomer, unassigned) [Example 80] | 283 nM
9 | CN1CC(N(C)[C@@]2(CCc3cccc(C(F)(F)F)c3)CCCN(c3ccc(S(=O)(=O)Nc4ccncn4)c(F)c3)C2)C1 (single isomer, unassigned) [Example 34] | 1.82 nM
10 | CN(C)[C@@]1(CCc2cccc(C(F)(F)F)c2)CCCN(c2cc(F)c(S(=O)(=O)Nc3ccon3)c(F)c2)C1 (single isomer, unassigned) [Example 58] | 10000 nM
11 | CN(C)[C@@]1(CCc2ccc(C(F)(F)F)cc2)CCCN(c2ccc(S(=O)(=O)Nc3ccncn3)c(F)c2)C1 (single isomer, unassigned) [Example 7] | 12.4 nM
12 | CN(C)[C@@]1(CCc2ccccc2)CCCN(c2ccc(S(=O)(=O)Nc3ccncn3)c(F)c2)C1 (single isomer, unassigned) [Example 5] | 10000 nM
13 | Cc1ccc(CC[C@@]2(N(C)C)CCCN(c3cc(F)c(S(=O)(=O)Nc4ccncn4)c(F)c3)C2)cc1C(F)(F)F (single isomer, unassigned) [Example 85] | 250 nM
14 | Cc1cc(N2CCC[C@@](CCc3cccc(C(F)(F)F)c3)(N(C)C)C2)cc(C)c1S(=O)(=O)Nc1ccncn1 (single isomer, unassigned) [Example 63, formate] | 177 nM
15 | CN(C)[C@@]1(CCc2ccc(C(F)(F)F)c(Cl)c2)CCCN(c2cc(F)c(S(=O)(=O)Nc3ccncn3)c(F)c2)C1 (single isomer, unassigned) [Example 50] | 504 nM
16 | Cc1cc(N2CCC[C@](CCc3cccc(C(F)(F)F)c3)(N(C)C)C2)cc(F)c1S(=O)(=O)Nc1ccncn1 [Example 9, (S)-4-(3-(Dimethylamino)-3-(3-(trifluoromethyl)phenethyl)-piperidin-1-yl)-2-fluoro-6-methyl-N-(pyrimidin-4-yl)benzenesulfonamide] | 597 nM
17 | CN1CC(N(C)[C@]2(CCc3cccc(C(F)(F)F)c3)CCCN(c3ccc(S(=O)(=O)Nc4ccncn4)c(F)c3)C2)C1 [Example 35, (R)-2-Fluoro-4-(3-(methyl(1-methylazetidin-3-yl)amino)-3-(3-(trifluoromethyl)phenethyl)piperidin-1-yl)-N-(pyrimidin-4-yl)benzenesulfonamide] | 40.7 nM
18 | CN(C)[C@@]1(CCc2c(Cl)cccc2Cl)CCCN(c2cc(F)c(S(=O)(=O)Nc3ccncn3)c(F)c2)C1 (single isomer, unassigned) [Example 68, formate] | 3140 nM

Row | SMILES | IC50
19 | Cc1cc(N2CCC[C@](CCc3cccc(C(F)(F)F)c3)(N(C)C)C2)cc(C)c1S(=O)(=O)Nc1ccncn1 (single isomer, unassigned) [Example 62, formate] | 8.59 nM
20 | CN(C)[C@]1(C[C@@H]2CCc3ccc(C(F)(F)F)cc32)CCCN(c2cc(F)c(S(=O)(=O)Nc3ccncn3)c(F)c2)C1 [Example 49, 4-((S)-3-(Dimethylamino)-3-(((S)-6-(trifluoromethyl)-2,3-dihydro-1H-inden-1-yl)methyl)piperidin-1-yl)-2,6-difluoro-N-(pyrimidin-4-yl)benzenesulfonamide formate] | 11.1 nM
21 | CN(C)[C@]1(CCC2CCCCC2)CCCN(c2cc(F)c(S(=O)(=O)Nc3ccncn3)c(F)c2)C1 [Example 93, (R)-4-(3-(2-Cyclohexylethyl)-3-(dimethylamino)piperidin-1-yl)-2,6-difluoro-N-(pyrimidin-4-yl)benzenesulfonamide formate] | 245 nM
22 | CN(C)[C@]1(CCc2cccc(C(F)(F)F)c2)CCCN(c2cc(F)c(S(=O)(=O)Nc3ccncn3)c(F)c2)C1 (single isomer, unassigned) [Example 16] | 1.41 nM
23 | CN(C)[C@]1(CCc2ccc(Cl)c(C(F)(F)F)c2)CCCN(c2ccc(S(=O)(=O)Nc3ccncn3)c(F)c2)C1 (single isomer, unassigned) [Example 20, formate] | 2.74 nM
24 | CN(C)[C@]1(CCc2cccc(C(F)(F)F)c2Cl)CCCN(c2cc(F)c(S(=O)(=O)Nc3ccncn3)c(F)c2)C1 (single isomer, unassigned) [Example 41] | 1.07 nM
25 | CN(C)[C@]1(CCc2cccc(C(F)(F)F)n2)CCCN(c2cc(F)c(S(=O)(=O)Nc3ccncn3)c(F)c2)C1 [Example 98, (S)-4-(3-(Dimethylamino)-3-(2-(6-(trifluoromethyl)pyridin-2-yl)ethyl)piperidin-1-yl)-2,6-difluoro-N-(pyrimidin-4-yl)benzenesulfonamide formate] | 62.5 nM
26 | CCN(C)[C@@]1(CCc2cccc(C(F)(F)F)c2)CCCN(c2cc(F)c(S(=O)(=O)Nc3ccncn3)c(F)c2)C1 (single isomer, unassigned) [Example 78] | 974 nM
27 | CN(C)[C@]1(CCc2cccc(C(F)(F)F)c2)CCCN(c2cc(F)c(S(=O)(=O)Nc3ccncn3)c(Cl)c2)C1 (single isomer, unassigned) [Example 18] | 1.83 nM
28 | Cc1cc(N2CCC[C@](CCc3cccc(C(F)(F)F)c3)(N(C)C)C2)ccc1S(=O)(=O)Nc1ccncn1 (single isomer, unassigned) [Example 72, formate] | 9.2 nM
29 | Cc1ccc(CC[C@]2(N(C)C)CCCN(c3cc(F)c(S(=O)(=O)Nc4ccncn4)c(F)c3)C2)cc1C(F)(F)F (single isomer, unassigned) [Example 84, formate] | 2.84 nM
30 | CN(C)[C@]1(CCc2cccc(C(F)(F)F)c2)CN(c2cc(F)c(S(=O)(=O)Nc3ccncn3)c(F)c2)CC[C@@H]1O (single isomer, unassigned) [Example 76, formate] | 30.8 nM
31 | CN1CCC(N(C)[C@]2(CCc3cccc(C(F)(F)F)c3)CCCN(c3ccc(S(=O)(=O)Nc4ccncn4)c(F)c3)C2)CC1 (single isomer, unassigned) [Example 37, formate] | 7.22 nM
32 | CN(C)[C@]1(CCc2cccc(C(F)(F)F)c2)CN(c2cc(F)c(S(=O)(=O)Nc3ccncn3)c(F)c2)CC[C@H]1O (single isomer, unassigned) [Example 74, formate] | 1010 nM
33 | Cc1cc(N2CCC[C@@](CCc3cccc(C(F)(F)F)c3)(N(C)C)C2)cc(F)c1S(=O)(=O)Nc1ccncn1 [Example 10, (R)-4-(3-(Dimethylamino)-3-(3-(trifluoromethyl)-phenethyl)piperidin-1-yl)-2-fluoro-6-methyl-N-(pyrimidin-4-yl)benzenesulfonamide] | 2.66 nM
34 | CN(C)[C@@]1(CCc2cccc(C(F)(F)F)n2)CCCN(c2cc(F)c(S(=O)(=O)Nc3ccncn3)c(F)c2)C1 [Example 97, (R)-4-(3-(Dimethylamino)-3-(2-(6-(trifluoromethyl)pyridin-2-yl)ethyl)-piperidin-1-yl)-2,6-difluoro-N-(pyrimidin-4-yl)benzenesulfonamide formate] | 10000 nM
35 | O=S(=O)(Nc1ccncn1)c1ccc(N2CCC[C@](CCc3cccc(C(F)(F)F)c3)(N3CCCCC3)C2)cc1F (single isomer, unassigned) [Example 25, formate] | 312 nM
